Experimental data: patent US5332811A, “Etopside analogs” (priority 1991, dated 1994)
Where two headings read alike, the source gives them in different places.

How the values were obtained:
[1] = system: KB cells; test: Cytotoxicity: 50% reduction in cell number of KB cells after three day incubation; type: cell-based; details: Homo sapiens, 72 h, read-out: Cytotoxicity ID50 KB
Procedure: (§1) The compounds of the present invention were tested for their degree of inhibitory activity on human type II DNA topoisomerase, their effect on the formation of protein-linked DNA breakage, and their cytotoxicity. The inhibitory activity for compounds of the present invention correlated with the ability of the compounds to cause DNA strand breakage. […] For a description of the assays used with respect to the compounds listed in Tables 1 to 5 see Thurston, L.S., Irie, H., Tani, S., Han, F. S., Liu, Z. C., Cheng, Y.C., and Lee, K. H., Antitumor Agents 78. Inhibition of Human DNA Topoisomerase II by Podophyllotoxin and Peltatin Analogues, J. Med. Chem. 29, 1547 (1986), and the references cited therein, herein incorporated by reference.
in cell number after three day incubation.

[2] = biological target: Human DNA topoisomerase II; test: DNA topoisomerase II assay (P4 unknotting reaction); type: biochemical; details: read-out: Inhibition of DNA Topoisomerase II Activity ID50
Procedure: as §1, with “cytotoxicity.” for “cytotoxicity. The inhibitory activity for compounds of the present invention correlated with the ability of the compounds to cause DNA strand breakage.”
Human DNA topoisomerase II was isolated from peripheral blast cells of a patient with acute leukemia. The isolation procedure is described in Thurston, L., Imakura, Y., Haruna, M., Li, Z. C., Liu, S. Y., and Lee, K. H., J. Med. Chem., 31, […] (1988) and is a partial combination of the procedure described in Goto, T., Laiapia, P. and Wang, J., J. Biol. Chem., 259, 10422 (1984) and Halligan, B., Edwards, K., and Liu, L., J. Biol. Chem., 260, 2475 (1985) which are herein specifically incorporated by reference.
Drugs were dissolved in Me2 SO at a concentration of 20 mM as the stock solution and diluted before use with water to the desired concentration of each drug.
The P4 unknotting reaction was a modification of the procedure described by Hseih, T., J. Biol. Chem., 258, 8413 (1985), which is herein specifically incorporated by reference.
The reaction mixture (20 μL), which contained 50 mM HEPES, pH 7.0, 50 mM KCI, 100 mM NaCl, 0.1 mM EDTA, 10 mM MgCl2, 1.0 mM ATP, 50 μg/mL bovine serum albumin, 0.4 μg P4knotted DNA, and enzyme, was incubated with or without drugs.
The reaction mixture was incubated at 37° C. for 30 min and terminated by adding 5.0 μl of a stop solution (2% sodium dodecyl sulfate, 20% glycerol, 0.05% bromophenol blue). These samples were loaded onto a 1% agarose gel and electrophoresed at 55 V overnight with an electrophoresis buffer that contained 90 mM Tris-boric acid, pH 8.3, and 2.5 mM EDTA. At completion, the gel was stained in 0.5 μg/mL of ethidium bromide. Then a photograph was taken of the DNA bands visualized with fluorescence induced by a long-wavelength UV lamp. […]

[3] = Table 1, KB cells, three day incubation
[4] = Table 1, based on degree of inhibition at 25, 50, and 100 μM
[5] = Table 2, KB cells, three day incubation
[6] = Table 2, based on degree of inhibition at 10, 25, 50 and 100 μM
[7] = Table 4, KB cells, three day incubation
[8] = Table 4, based on degree of inhibition at 10, 25, 50 and 100 μM
[9] = Table 3, KB cells, three day incubation
[10] = Table 3, based on degree of inhibition at 20, 25, 50 and 100 μM

COc1cc(C2c3cc4c(cc3C(NCc3ccccc3)C3COC(=O)C23)OCO4)cc(OC)c1O (stereo not drawn) [Example 3, 4'-O-Demethyl-4β-benzylamino-4-desoxypodophyllotoxin]
IC50 [1, 3]: 2.2 µM
IC50 [2, 4]: 25 µM

COc1cc(C2c3cc4c(cc3C(NCc3ccc(F)cc3)C3COC(=O)C23)OCO4)cc(OC)c1O (stereo not drawn) [Example 9, 4'-O-Demethyl-4β-(4"-fluorobenzylamino)-4-desoxypodophyllotoxin]
IC50 [1, 3]: > 4 µM
IC50 [2, 4]: 50 µM

COc1cc(C2c3cc4c(cc3C(NCc3ccccc3[N+](=O)[O-])C3COC(=O)C23)OCO4)cc(OC)c1O (stereo not drawn) [Example 6, 4'-O-Demethyl-4β-(2"-nitrobenzylamino)-4-desoxypodophyllotoxin]
IC50 [1, 3]: 1.8 µM
IC50 [2, 4]: 50 µM

COC1=CC([C@@H]2c3cc4c(cc3[C@@H](Nc3ccc([N+](=O)[O-])cc3)[C@H]3COC(=O)[C@@H]32)OCO4)=CC(=O)C1=O [Example 44, 3',4'-Didemethoxy-3',4'-dioxo-4β-(4"-nitroanilino)-4-desoxypodophyllotoxin]
IC50 ([1]; KB): 1.5 µM
IC50 ([2]; Table 5, based on degree of inhibition at 10, 25, 50 and 100 μM): 10 µM

COc1cc(C2c3cc4c(cc3C(Nc3cccc(O)c3)C3COC(=O)C23)OCO4)cc(O)c1O (stereo not drawn) [Example 19, 3',4'-O-Didemethyl-4β-(3"-hydroxyanilino)-4-desoxypodophyllotoxin]
IC50 [1, 5]: 1.6 µM
IC50 [2, 6]: 10 µM

COc1cc(C2c3cc4c(cc3C(NCc3cccc(N)c3)C3COC(=O)C23)OCO4)cc(OC)c1O (stereo not drawn) [Example 13, 4'-O-Demethyl-4β-(3"-aminobenzylamino)-4-desoxypodophyllotoxin]
IC50 [1, 3]: < 0.4 µM
IC50 [2, 4]: 25 µM

COc1cc([C@@H]2c3cc4c(cc3[C@@H](NC(=O)c3ccc(OC(C)=O)cc3)[C@H]3COC(=O)[C@H]23)OCO4)cc(OC)c1O [Example 37, 4'-O-Demethyl-4β-[(4-acetoxybenoyl)amino]-4-desoxypodophyllotoxin]
IC50 [1, 7]: 0.61 µM
IC50 [2, 8]: 25 µM

COc1cc(C2c3cc4c(cc3C(Nc3ccc5c(c3)OCCO5)C3COC(=O)C23)OCO4)cc(O)c1O (stereo not shown) [Example 20]
IC50 [1, 5]: 2.3 µM
IC50 [2, 6]: 10 µM

COc1cc(CNC2c3cc4c(cc3C(c3cc(OC)c(O)c(OC)c3)C3C(=O)OCC23)OCO4)cc(OC)c1 (stereo not drawn) [Example 12, 4'-O-Demethyl-4β-(3",5"-dimethoxybenzylamino)-4-desoxypodophyllotoxin]
IC50 [1, 3]: 1.7 µM
IC50 [2, 4]: 100 µM

CCOC(=O)c1ccc(N[C@@H]2c3cc(OC)c(OC)cc3[C@@H](c3cc(OC)c(O)c(OC)c3)[C@H]3C(=O)OC[C@@H]32)cc1 [Example 33, 6,7-O-demethylene-6,7-O-dimethyl-4'-O-demethyl-4β-[4"-(ethoxycarbonyl)anilino]-4-desoxypodophyllotoxin]
IC50 [1, 9]: < 0.4 µM
IC50 [2, 10]: 100 µM

COc1cc2c(cc1OC)[C@@H](Nc1ccc(C#N)cc1)[C@H]1COC(=O)[C@@H]1[C@@H]2c1cc(OC)c(O)c(OC)c1 [Example 32, 6,7-O-demethylene-6,7-O-dimethyl-4'-O-demethyl-4β-(4"-cyanoanilino)-4-desoxypodophyllotoxin]
IC50 [1, 9]: < 0.4 µM
IC50 [2, 10]: 50 µM

COc1cc(C2c3cc4c(cc3C(Nc3ccc(F)cc3)C3COC(=O)C23)OCO4)cc(O)c1O (stereo not drawn) [Example 18, 3',4'-O-didemethyl-4β-(4"-floroanilino)-4-desoxypodophyllotoxin]
IC50 [1, 5]: 3 µM
IC50 [2, 6]: 10 µM

COc1cc(C2c3cc4c(cc3C(NCc3ccccc3F)C3COC(=O)C23)OCO4)cc(OC)c1O (stereo not drawn) [Example 7, 4-O-Demethyl-4β-(2"-fluorobenzylamino)-4-desoxypodophyllotoxin]
IC50 [1, 3]: 1.9 µM
IC50 [2, 4]: 100 µM

COc1cc([C@@H]2c3cc4c(cc3[C@@H](NC(=O)c3ccccc3)[C@H]3COC(=O)[C@H]23)OCO4)cc(OC)c1O [Example 34, 4'-O-Demethyl-4β-(benzoylamino)-4-desoxypodophyllotoxin]
IC50 [1, 7]: 0.64 µM
IC50 [2, 8]: > 50 µM
